# Experiments:
# [1] = biological target: T1, cathepsin K (mature, mCatK) (Homo sapiens, UniProt P43235); experiment: crystal structure […] Å (also with iCatK, 7QBO); Ki by slow-binding fluorogenic enzyme assay; format: biochemical; conditions: read-out: mCatK inhibition^a / Ki
# T1 construct: gene CTSK; mature CatK, model residues Ala1 to Met215 plus N-terminal Gly-Arg (98p–99p) (from recombinant zymogen expressed in Pichia pastoris)
# T1 sequence (P43235 113-329): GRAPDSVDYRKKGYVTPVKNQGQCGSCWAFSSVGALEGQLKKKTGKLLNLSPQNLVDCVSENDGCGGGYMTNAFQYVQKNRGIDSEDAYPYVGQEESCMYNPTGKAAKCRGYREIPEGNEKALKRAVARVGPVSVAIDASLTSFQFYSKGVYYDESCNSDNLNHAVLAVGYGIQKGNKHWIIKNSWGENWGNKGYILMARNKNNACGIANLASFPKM
# [2] = biological target: T2, cathepsin K (mature, mCatK) (Homo sapiens, UniProt P43235); experiment: crystal structure […] Å (also with iCatK, 7QBM); Ki by fluorogenic enzyme assay (Morrison); format: biochemical; conditions: read-out: mCatK inhibition^a / Ki
# T2 construct: gene CTSK; mature CatK, model residues Ala1 to Met215 (from recombinant zymogen expressed in Pichia pastoris)
# T2 sequence (P43235 115-329): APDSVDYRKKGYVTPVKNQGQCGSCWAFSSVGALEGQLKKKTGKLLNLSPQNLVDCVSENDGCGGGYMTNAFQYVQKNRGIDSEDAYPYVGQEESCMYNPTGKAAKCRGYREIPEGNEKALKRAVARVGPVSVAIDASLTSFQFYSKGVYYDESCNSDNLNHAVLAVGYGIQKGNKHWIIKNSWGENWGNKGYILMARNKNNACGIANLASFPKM
smiles,measurement,setting,value
CN(C#N)N(C)C(=O)[C@H](Cc1ccccc1)NC(=O)OCc1ccccc1 [Gü1303],Ki,[1],0.91 nM
CN(Cc1ccccc1)C(=O)CN(C#N)NC(=O)OC(C)(C)C [Gü2602],Ki,[2],0.013 nM
